pIC50: −log10 of the molar value. Activity calls are given as the source filed them. No cut-off for these calls is given here.
Legend:
[1] = Inhibition of concanavalin A-induced cell proliferation of T cells (unknown origin) at 10 uM after 72 hrs by MTT assay; type: functional
[2] = tested on: Mus musculus; test: Antiarthritic activity in DBA/1J mouse collagen-induced arthritis model assessed as reduction in IL6 level at 5 mg/kg, po administered once daily for 49 days starting from onset of disease and measured after 3 to 49 days of disease onset by ELISA method; type: functional, organism-based; parameters: dose 5 mg/kg
[3] = tested on: B-cell; test: Inhibition of LPS-induced cell proliferation of B cells (unknown origin) at 10 uM after 72 hrs by MTT assay; type: functional
[4] = tested on: Mus musculus; test: Antiarthritic activity in DBA/1J mouse collagen-induced arthritis model assessed as reduction in TNFalpha level at 5 mg/kg, po administered once daily for 49 days starting from onset of disease and measured after 3 to 49 days of disease onset by ELISA method; type: functional, organism-based; parameters: dose 5 mg/kg
[5] = tested on: THP-1; test: Inhibition of LPS-induced TNFalpha production in human THP1 cells after 24 hrs; type: functional, cell-based; conditions: THP-1, 24 h
[6] = tested on: Mus musculus; test: Antiarthritic activity in DBA/1J mouse collagen-induced arthritis model assessed as reduction in IL-1beta level at 5 mg/kg, po administered once daily for 49 days starting from onset of disease and measured after 3 to 49 days of disease onset by ELISA method; type: functional, organism-based; parameters: dose 5 mg/kg
[7] = tested on: Mus musculus; test: Antiarthritic activity in DBA/1J mouse collagen-induced arthritis model assessed as reduction in anticollagen antibody IgG2a level at 5 mg/kg, po administered once daily for 49 days starting from onset of disease and measured after 14 days of disease onset by ELISA method; type: functional, organism-based; parameters: dose 5 mg/kg
[8] = tested on: THP-1; test: Inhibition of LPS-induced IL6 production in human THP1 cells after 24 hrs; type: functional, cell-based; conditions: THP-1, 24 h
[9] = tested on: Mus musculus; test: Antiarthritic activity in DBA/1J mouse collagen-induced arthritis model assessed as reduction in paw swelling at 5 mg/kg, po administered once daily for 49 days starting from onset of disease; type: functional; conditions: 1176 h
[10] = tested on: Mus musculus; test: Antiarthritic activity in DBA/1J mouse collagen-induced arthritis model assessed as reduction in anticollagen antibody IgG1 level at 5 mg/kg, po administered once daily for 49 days starting from onset of disease and measured after 14 days of disease onset by ELISA method; type: functional, organism-based; parameters: dose 5 mg/kg
[11] = tested on: Mus musculus; test: Antiarthritic activity in DBA/1J mouse collagen-induced arthritis model assessed as reduction in anticollagen antibody IgG1 level at 5 mg/kg, po administered once daily for 49 days starting from onset of disease and measured after 49 days of disease onset by ELISA method; type: functional, organism-based; parameters: dose 5 mg/kg
[12] = tested on: Mus musculus; test: Antiarthritic activity in DBA/1J mouse collagen-induced arthritis model assessed as reduction in anticollagen antibody IgG2a level at 5 mg/kg, po administered once daily for 49 days starting from onset of disease and measured after 49 days of disease onset by ELISA method; type: functional, organism-based; parameters: dose 5 mg/kg

For `C[C@H]1C[C@H]2[C@@H]3CCC4=CC(=O)C=C[C@]4(C)[C@@]3(F)[C@@H](O)C[C@]2(C)[C@@]1(O)C(=O)CO` [BETAMETHASONE], the inhibition at 10 µM [1] was 42.6%, the inhibition [2] was “Active” and the inhibition at 10 µM [3] was 28.1%. The inhibition [4] was “Active”, the pIC50 [5] was 7.89 and the inhibition [6] was “Active”. The inhibition [7] was “Active”, the pIC50 [8] was 7.66 and the inhibition in vivo at 5 mg/kg [9] was 46%. The inhibition [10] was “Active”, the inhibition [11] was “Active” and the inhibition [12] was “Active”.
